Results as given in patent US10295463B2, “Device and method for investigating one or a plurality of phase objects” (Ludwig-Maximilians-Universität München, priority 2013, dated 2019).

Legend:
bacteria = assay: Bacteria population growth and activity from intensity of a diffraction maximum, treatment with antibiotic; format: cell-based
Excerpt: In FIG. 16, it can be seen that the intensity of the diffraction maximum decreases with time for the bacteria sample. This decrease is due to an increasing division of the bacteria, i.e. a continuous increase in the bacteria population or, in other words, an increase in the number of phase objects which increasingly disturb the constructive interference in the diffraction maximum and thereby lead to a decrease in the intensity. In FIG. 16, it can be further observed that with increasing time, the intensity increasingly fluctuates, which can be attributed to the activity of the cells.
Further shown in FIG. 17 is an exemplary enlarged section of the course of the measurement signals, in which the fluctuations of the signal can be clearly seen. By fitting a growth curve, which includes the division rate as a parameter, the division rate of the bacteria can be discerned from the signal.
It can be seen from FIG. 18 that the standard deviation increases with time. This standard deviation represents fluctuations of the signals on a short time scale which in turn are a measure for the activity of the bacteria, which will be explained in more detail with reference to FIG. 19 below.

[1] = system: Dictyostelium discoideum cell; assay: Cell motility by Fourier analysis of the temporal diffraction signal when an active substance is added; format: cell-based; conditions: active substance added to the medium in the sample chamber at time t=0; FIG. 14
Excerpt: In FIG. 11b, a three-dimensional view is shown top left, a plan view is shown top right, and a cross section of the sample holder G is shown at the bottom. […] A surrounding medium or an active substance can be introduced into the receptacle, which is formed by the sample chamber. A sensor with a grid, which is arranged on a substrate, is located within the sample chamber. […] Furthermore, biological cells are located on the grid, where the reaction of the cells to the active substances is to be investigated. In particular, in the illustrated case is to be investigated how the motility of the cells changes due to the addition of the active substance.
In this case, the time axis runs from top to bottom and the frequency axis runs from left to right. At time t=0, the active substance, Latruncalin A, is added to the medium located in the sample chamber.

Compound	normalized intensity of the diffraction maximum as a function of time (bacteria; 4 mg/l applied at 60 min., FIG. 19 row 3 column c)	mean value of the standard deviation of the intensity as a function of time (bacteria; 4 mg/l applied at 60 min., FIG. 19 row 3 column d)	normalized intensity of the diffraction maximum as a function of time (bacteria; double dose of 2 mg/1, FIG. 19 row 2 column c)	mean value of the standard deviation of the intensity as a function of time (bacteria; double dose of 2 mg/1, FIG. 19 row 2 column d)	normalized intensity of the diffraction maximum as a function of time (bacteria; treated after 60 min. of growth, concentration 1 mg/l, FIG. 19 row 1 column c)	mean value of the standard deviation of the intensity as a function of time (bacteria; treated after 60 min. of growth, concentration 1 mg/l, FIG. 19 row 1 column d)	temporal course of the Fourier coefficients [1]
CC1(C)S[C@@H]2[C@H](NC(=O)[C@H](N)c3ccccc3)C(=O)N2[C@H]1C(=O)O [AMP]	the intensity starts increasing again after 90 min.	a rapid decrease in the standard deviation, which is even more pronounced than in the second row	the decrease in the normalized intensity flattens at 120 min.	at 120 min. the standard deviation decreases significantly, which is again indicative of cell death	the normalized intensity decreases, which indicates a further growth of the bacteria population	the standard deviation reaches a plateau at 120 min. and decreases thereafter, which suggests that the bacteria cells die	
C/C1=C/C(=O)O[C@@H]2C[C@@H](CC[C@H](C)/C=C\C=C\CC1)O[C@@](O)([C@@H]1CSC(=O)N1)C2 [Latruncalin A, Latrunculin A]							a rise in the Fourier coefficients, which subside again with increasing exposure time
